pEC50: −log10 of the molar value.
How the values were obtained:
[1] = molecular target: T1, human wild type STING (WT STING) (Homo sapiens, UniProt Q86WV6, H232R); assay: Digitonin assay using 293T wtSTING-FL reporter cells; assay type: cell-based; settings: 293T wtSTING-FL cells; ISRE firefly luciferase reporter; 30 min in Digitonin buffer, then 5 hours; 8-point dose-response curve
T1 construct: host or cells: 293T (ATCC CRL-3216), stably transfected, with a 4xISRE firefly luciferase reporter
Source text: ISRE Reporter Plasmid (pGL64.27-4×ISRE)
Two complementary oligonucleotides of the sequence […] […] […] […] […] The oligonucleotides were mixed in equal molar amounts, hybridized, and cleaved by restriction endonucleases HindIII (cat. #. R0104S, NEB, Ipswich, USA) and BglII (cat. #R0144S, NEB, Ipswich, USA). Ultimately, they were ligated into plasmid pGL4.27 (cat. #E6651, Promega, Madison, USA) linearized with the same enzymes. As result the sequence with four ISRE sites was placed upstream of the minimum promoter of firefly luciferase reporter gene.
After 5 minutes incubation at room temperature (RT), 250 μL of the mixture was added dropwise to the cells in one well. Cells were incubated 36 hours at 37° C. with 5% CO2, and then detached with 0.05% Trypsin and 0.22 g/L EDTA (both cat. #L0941, Biowest, Riverside, USA).
Transfected cells were seeded onto poly-D-lysine coated six well plates at density 50,000 cells per 1 cm^2 in DMEM medium with high glucose containing 10% heat inactivated FBS, 30 μg/mL blasticidin (cat. #ant-bl-05, InvivoGen, San Diego, USA), 0.06 mg/ml Penicillin G and 0.1 mg/ml Streptomycin Sulfate (both cat. #. L0018, Biowest, Riverside, USA). The medium was replenished every 3-4 days until visible colonies of cells resistant to blasticidin were formed.
Blasticidin resistant cells stably expressing WT STING were further transfected with pGL64.27-4×ISRE plasmid following the same procedure as described above. […] Homogeneous culture of stably double transfected cells was prepared by limiting dilution of cells in 96 well plates and wells with cells were selected that originated from a single cell.
The medium was removed next day and three fold serial dilutions of compounds in Digitonin buffer containing 50 mmol·l^−1 HEPES (cat. #H3375, Sigma Aldrich, Czech Republic) pH 7.0, 100 mmol·l^−1 KCl, 3 mmol·l^−1 MgCl2, 0.1 mmol·l^−1 DTT (cat. #D0632, Sigma Aldrich, Czech Republic), 85 mmol·l^−1 Sucrose (cat. #S7903, Sigma Aldrich, Czech Republic), 0.2% BSA (cat. #A2153, Sigma Aldrich, Czech Republic), 1 mmol·l^−1 ATP (cat. #A1852, Sigma Aldrich, Czech Republic), 0.1 mmol·l^−1 GTP (cat. #G8877, Sigma Aldrich, Czech Republic), and 10 μg/mL Digitonin A (cat. #D141, Sigma Aldrich, Czech Republic) were added to the cells. The buffer was removed after 30 minutes incubation at 37° C. with 5% CO2, the cells were washed once with 100 μl of cultivation medium, and 100 μl of medium was added to each well. The plates with cells were incubated for 5 hours at 37° C. with 5% CO2, 50 μl of the medium was removed and 30 μl of ONE-Glo™ Luciferase Assay System reagent (cat. #E6120, Promega, Madison, USA) was added to each well. Luminescence was read on Synergy H1 (Biotek, Winooski, USA).

AQ STING (G230A-R293Q) = molecular target: T2, AQ STING (G230A-R293Q) (Homo sapiens, UniProt Q86WV6, G230A/H232R/R293Q); assay: Differential Scanning Fluorimetry (DSF) with AQ STING; assay type: binding; settings: thermal shift vs STING apoprotein; 150 μM CDN; 0.1 mg/ml protein; SYPRO Orange
T2 construct: encoded truncated human WT STING or AQ STING (amino acid residues 140-343) with N-terminal 8×His and SUMO tag; 8xHis-SUMO (N, cleaved yes); made in house; host or cells: E. coli Rosetta-gami B (DE3)
Experimental: (§1) WT STING and AQ STING Proteins
(§2) Purified PCR products were cleaved with restriction enzymes BamHI (cat. #R0136S, NEB, Ipswich, USA) and NotI (cat. #R0189S, NEB, Ipswich, USA) and cloned into the pSUMO vector linearized with the identical enzymes.
(§3) DNase I (cat. #D5025, Sigma Aldrich, Czech Republic) and RNase A (cat. #R6513, Sigma Aldrich, Czech Republic) were added (final concentration 50 μg/ml) together with MgCl2 (final concentration 5 mmol·l^−1) to the homogenate and bacteria were lysed using French Press G-M™ High-Pressure Cell Press Homogenizer (1500 psi, 3 cycles). […] The resin was poured into a chromatography column, washed with 50 ml buffer A (50 mmol·l^−1 TrisCl (pH 8.0), 800 mmol·l^−1 NaCl, 3 mmol·l^−1 3-mercaptol; 10% glycerol; 20 mmol·l^−1 imidazole) and 8-His-SUMO tagged STING proteins were eluted with 15 ml buffer A containing 300 mmol·l^−1 imidazole. […] Proteins were concentrated with Amicon® Ultra-15 10 K device (cat. #UFC901008, Merck Millipore, Billerica, USA) and flash frozen in liquid N2.
(§4) Differential Scanning Fluorimetry (DSF) with WT STING and AQ STING
(§5) 20 μL solutions of the reaction mixtures were pipetted in triplicates into 96 well optical reaction plates and thermal denaturation of samples were performed on real time PCR cycler (LightCycler R 480 Instrument II—Roche, Basel, Switzerland). The first derivative of the thermal denaturation curves was performed to calculate denaturing temperatures of STING-CDN complexes and STING apoproteins. The thermal shift for each CDN was calculated by subtracting the average denaturing temperature of STING apoprotein from the average denaturing temperature of STING CDN complex.

WT STING = molecular target: T3, WT STING (Homo sapiens, UniProt Q86WV6, H232R); assay: Differential Scanning Fluorimetry (DSF) with WT STING; assay type: binding; settings: thermal shift vs STING apoprotein; 150 μM CDN; 0.1 mg/ml protein; SYPRO Orange
T3 construct: encoded truncated human WT STING or AQ STING (amino acid residues 140-343) with N-terminal 8×His and SUMO tag; 8xHis-SUMO (N, cleaved yes); made in house; host or cells: E. coli Rosetta-gami B (DE3)
Experimental: as §1, §2, §3, §4, §5

T3 sequence (Q86WV6 140-343 H232R): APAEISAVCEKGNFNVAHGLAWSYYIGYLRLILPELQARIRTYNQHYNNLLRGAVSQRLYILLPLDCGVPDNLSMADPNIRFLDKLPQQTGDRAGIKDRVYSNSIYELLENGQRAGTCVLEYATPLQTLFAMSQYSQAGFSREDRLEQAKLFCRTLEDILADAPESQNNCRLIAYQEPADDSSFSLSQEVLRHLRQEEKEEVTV
T2 sequence (Q86WV6 140-343 G230A/H232R/R293Q): as the sequence (Q86WV6 140-343 H232R) above, with G91A, R154Q counted along it
T1 sequence (Q86WV6 whole entry H232R): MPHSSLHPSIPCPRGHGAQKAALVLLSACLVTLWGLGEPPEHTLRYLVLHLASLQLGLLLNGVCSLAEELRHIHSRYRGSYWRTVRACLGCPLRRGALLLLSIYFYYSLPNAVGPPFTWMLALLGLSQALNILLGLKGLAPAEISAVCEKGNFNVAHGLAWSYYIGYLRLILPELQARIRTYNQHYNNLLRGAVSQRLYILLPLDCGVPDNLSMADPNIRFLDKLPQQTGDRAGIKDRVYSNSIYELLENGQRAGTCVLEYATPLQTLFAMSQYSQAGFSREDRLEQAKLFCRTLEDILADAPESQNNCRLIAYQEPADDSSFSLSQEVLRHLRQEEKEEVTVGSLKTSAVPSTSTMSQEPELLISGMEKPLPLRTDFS

Row | SMILES | pEC50 [1] | ΔTm at 150 µM (AQ STING (G230A-R293Q)) | ΔTm at 150 µM (WT STING)
1 | Nc1nc2c(ncn2[C@@H]2O[C@@H]3OCP(=O)(O)OC4C(O)[C@H](n5cnc6c(N)ncnc65)O[C@@H]4COP(=O)(O)OC3C2O)c(=O)[nH]1 (stereo partly drawn) [Compound 37] | 8.30 | 15.9 °C | 7.6 °C
2 | CNc1ncnc2c1ncn2[C@@H]1O[C@@H]2COP(=O)(O)OC3C(O)[C@H](n4cnc5c(N)ncnc54)O[C@@H]3OCP(=O)(O)OC2C1O (stereo partly drawn) [Compound 48] | 5.82 | 4.4 °C | 0.6 °C
3 | Nc1nc2c(ncn2[C@@H]2O[C@@H]3COP(=O)(O)OC4C(O)[C@H](n5cnc6c(N)ncnc65)O[C@@H]4OCP(=O)(O)OC3C2O)c(=O)[nH]1 (stereo partly drawn) [Compound 44] | 7.05 | 11.2 °C | 4.5 °C

Further lines, results first:

Row | pEC50 [1] | ΔTm at 150 µM (AQ STING (G230A-R293Q)) | ΔTm at 150 µM (WT STING) | SMILES
4 | 5.66 | 6.3 °C | 1.1 °C | Nc1ncnc2c1ncn2[C@@H]1O[C@@H]2OCP(=O)(O)OC3C(O)[C@H](n4cnc5c(N)nc(F)nc54)O[C@@H]3COP(=O)(O)OC2C1O (stereo partly drawn) [Compound 52]
5 | 6.05 | 8.8 °C | 3 °C | Nc1ncnc2c1ncn2[C@@H]1O[C@@H]2OCP(=O)(O)OC3C(F)[C@H](n4cnc5c(N)nc(F)nc54)O[C@@H]3COP(=O)(O)OC2C1O (stereo partly drawn) [Compound 53]
6 | 5.82 | 4.2 °C | 0.5 °C | Nc1ncnc2c1ncn2[C@@H]1O[C@@H]2OCP(=O)(O)OC3C(O)[C@H](n4cnc5c(N)ncnc54)O[C@@H]3COP(=O)(S)OC2C1O (stereo partly drawn) [Compound 49]
